Results: patent US8338663B2 (priority 2001, dated 2012)

Assays:
Phytophthora infestans [1] = assay type: cell-based; conditions: for effect on mycelium growth at the lowest concentration: 0.002% (=20 ppm) in Plich medium, isolate VK98014, day 3 and 5; for effect on mycelium growth through the vapour phase: 0.2% added to the medium in the adjacent wells, isolate VK98014; for inhibition of mycelium growth: 2% and 0.2% (v/v) in Plich medium, isolate VK98014, day 3, 5 and 7
[2] = system: Fusarium verticillioides spores; assay: Spectrophotometric assay of Fusarium spore germination; assay type: cell-based; conditions: 10^5 spores/ml in Czapek Dox medium, day 3
Experimental: A spectrophotometric assay was used to monitor the onset of germination of Fusarium verticillioides spores (isolates: ITEM2282, MRC3235, MRC826, MRC826-2) in solution. The spores were diluted to a concentration of 10^5 spores/ml in Czapek Dox medium and mixed with 8-4000 ppm of linalool or nerolidol.

[3] = system: Phytophthora infestans (isolate VK98014); assay type: cell-based; conditions: linalool versus farnesol
[4] = system: Phytophthora infestans (isolate VK98014); assay type: cell-based
[5] = system: Fusarium graminearum, Fusarium culmorum, F. verticillioides strain MRC826; assay type: cell-based, Fusarium spp.
[6] = system: Botrytis cinerea isolated from grape and strawberry; assay: Effects of linalool and nerolidol on Botrytis mycelial growth; assay type: cell-based; conditions: day 7
Experimental: Botrytis. Nerolidol and linalool were tested in a range of concentrations (10-5000 ppm) alone and in combination through the addition to Plich medium in 6 well plates (3 ml per well). In the case of comparing the application of nerolidol and linalool alone to the combination of the two compounds, 100 ppm of the single compound was for example compared to 50+50 ppm of the two compounds together. One 6 well plate per compound was used with two different concentrations in triplicate. All wells were inoculated with a mycelium plug of Botrytis cinerea isolated from grape and strawberry and incubated at 20° C. Each day the radial growth of the mycelium was measured. The mycelium growth of all Botrytis isolates was inhibited at concentrations above 10 ppm.

[7] = target: T1, H64NORS linalool/nerolidol synthase, cultivated strawberry, recombinant his-tag purified, no targeting signal, SEQ ID NO: 19 (Fragaria x ananassa, UniProt P0CV94); assay: Kinetic characterisation of the his-tag purified H64NORS-encoded protein; assay type: biochemical, cultivated strawberry (Fragaria×ananassa Duch. cv. Elsanta); conditions: read-out: Km for GPP
T1 sequence (P0CV94 1-519): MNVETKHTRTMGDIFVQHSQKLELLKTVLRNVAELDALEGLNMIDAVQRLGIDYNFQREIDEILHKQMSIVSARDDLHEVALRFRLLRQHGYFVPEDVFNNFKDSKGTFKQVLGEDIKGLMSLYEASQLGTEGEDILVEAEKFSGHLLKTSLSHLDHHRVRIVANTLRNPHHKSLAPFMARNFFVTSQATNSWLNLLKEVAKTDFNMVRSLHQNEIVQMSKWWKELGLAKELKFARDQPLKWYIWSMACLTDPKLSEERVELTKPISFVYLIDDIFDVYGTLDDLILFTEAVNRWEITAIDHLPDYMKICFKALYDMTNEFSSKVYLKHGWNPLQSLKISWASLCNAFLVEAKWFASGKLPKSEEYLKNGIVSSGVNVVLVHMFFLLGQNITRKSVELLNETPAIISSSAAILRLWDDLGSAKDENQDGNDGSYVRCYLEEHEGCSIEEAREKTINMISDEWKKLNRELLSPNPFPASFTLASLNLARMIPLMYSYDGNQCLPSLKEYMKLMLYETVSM
Experimental: The pRSETB vector harboring the H64MUT or H64NORS was used to transform E. coli strain BL21 Gold DE3 pLysE (Stratagene) as described by the manufacturer. For bacterial expression typically 1 ml of overnight liquid culture grown at 37° C. in Luria Broth (LB) medium (10 g/l tryptone, 5 g/l yeast extract, 5 g/l NaCl) supplemented with 100 mg/l ampicillin was diluted 50 times in the same medium and grown until the OD600 reached 0.4 (at 37° C.). At this stage IPTG was added to a final concentration of 1 mM in order to induce expression. After overnight growth at 16° C. the cells were harvested by centrifugation at 4000×g for 15 min. […] The cells were further processed as described by the Ni-NTA Spin Columns manufacturers (QIAGEN) for protein purification under native conditions. First elute from the column (200 μl) was further used for enzymatic activity assays.
For determination of terpene synthase identity, the His-tag purified enzymes (prepared as described above under Example 4.6) were diluted 10-fold with buffer A containing 15 mM MOPSO (pH 7.0), 10% glycerol, 10 mM MgCl2, 1 mM sodium ascorbate and 2 mM DTT. […]
The samples were also analysed by GC-MS using a HP 5890 series II gas chromatograph equipped with an HP5-MS column (30 m×0.25 mm i.d., 0.25 μm df) and HP 5972A Mass Selective Detector (Hewlett-Packard). […]

Phytophthora infestans [8] = assay type: in vivo; conditions: cultivar Bintje, 0.05% (v/v) solution vacuum-infiltrated (ca. 0.0125% in leaves), 4 isolates, after 7 days
[9] = system: Agrobacterium tumefaciens; assay: Transformation of Agrobacterium with H64NORS binary vector (nerolidol formed from endogenous FPP); assay type: cell-based; conditions: inferred: no colonies obtained after transformation of 2 strains with H64NORS
[10] = substrate: CC(C)=CCC/C(C)=C/CC/C(C)=C/CO[P@@](=O)(O)OP(=O)(O)O; assay: purified protein, by the assay type; conditions: pH 7.0

`C=CC(C)(O)CCC=C(C)C` (stereo not shown) [linalool] was tested, and the “effect on mycelium growth at the lowest concentration” value (Phytophthora infestans [1]) was “active”, the “effect on mycelium growth through the vapour phase” value (Phytophthora infestans [1]) was “equally effective through the vapour phase as through the medium” and the “inhibition of mycelium growth” value (Phytophthora infestans [1]) was “inhibited completely”. The “effect on germination of spores” value ([2]; 8-4000 ppm) was “did not affect the germination of the spores at all”, the “Relative activity, inhibition of mycelium growth” value [3] was “more active than farnesol” and the “Inhibition of mycelium growth at the lowest concentration” value ([4]; 0.002% (=20 ppm) in Plich medium, day 3 and 5) was “active even at the lowest concentration”. The “Relative effectiveness at very high concentrations” value ([5]; nerolidol versus linalool, day 7) was “more effective” and the “Relative effectiveness at very high concentrations” value ([6]; linalool or the combination) was “most effective”.

`CC(C)=CCC/C(C)=C/COP(=O)(O)OP(=O)(O)O` [GPP, geranyl diphosphate] was tested, and the Km [7] was > 50 µM.

With `CC(C)=CCCC(C)=CCCC(C)=CCO` [Farnesol, reference compound] the “inhibition of mycelium growth” value (Phytophthora infestans [1]) was “partial inhibition”.

In the case of `C=CC(C)(O)CCC=C(C)CCC=C(C)C` (stereo not shown) [nerolidol], the “effect on mycelium growth at the lowest concentration” value (Phytophthora infestans [1]) is reported as “strong inhibitor of mycelium growth”, the “effect on mycelium growth through the vapour phase” value (Phytophthora infestans [1]) is reported as “negligible” and the “effect on mycelium growth, lesion formation and sporulation in infiltrated potato leaves” value (Phytophthora infestans [8]) is reported as “strongly inhibits mycelium growth, lesion formation and sporulation”. For the same molecule, the “concentrations showing strong inhibition of germination” value ([2]; 8-4000 ppm tested) was “above 250 ppm”, the “toxicity to Agrobacterium cells” value [9] was “highly toxic” and the “Relative effectiveness, inhibition of mycelium growth” value ([4]; nerolidol versus linalool) was “slightly more effective than linalool”. For the same molecule, the “Relative effectiveness at low concentrations” value ([5]; F. graminearum and MRC826, day 7) was “slightly more effective than linalool” and the “Relative effectiveness at low concentrations” value ([6]; nerolidol versus linalool) was “more effective than linalool”.

B1: H64NORS linalool/nerolidol synthase, cultivated strawberry, recombinant his-tag purified, no targeting signal, SEQ ID NO: 19 (Fragaria x ananassa) (protein)
chain: T1 sequence (P0CV94 1-519)
Molecule B1 has a Km [10] of 3.2 µM.
